In the assay the test system is T1, BZDH (benzaldehyde dehydrogenase, xylC).
T1 construct: xylC ORF of 792 bp, 264 aa, ~27 kDa, homologous to the C-terminal half of other aldehyde dehydrogenases; DEAE ion exchange; forward primer […]; (encodes MSPSPVPPR), reverse primer […]; (C-terminus ...DVPGYPF)
Kind of assay: NADH formation at […] nm, Lineweaver-Burk. In kind it is biochemical, Rhodococcus ruber. To be noted: co-substrate NAD (standard assay 5 mM, 50 mM glycine-NaOH); 25 °C; benzaldehyde 0.005-4 mM; pH of kinetic run not stated.

As for `O=Cc1ccccc1` [benzaldehyde], the Km worked out at 4.2 mM.

What is called Km is the concentration of substrate that gives half-maximal velocity.

Values taken from article PMC5582255, “Partial Purification and Characterization of the Recombinant Benzaldehyde Dehydrogenase from Rhodococcus ruber UKMP-5M” (Iranian Journal of Biotechnology, 2017).
